{"source": "patent US6753005B1", "about": "“Method for tissue perfusion” (Direct Therapeutics, Inc., priority 1997, dated 2004)", "key": {"normal rat liver": {"system": "normal rat liver", "test": "Normal rat liver model, intrahepatic injection", "assay_type": "in vivo", "settings": "for Clinical Signs / Gross Findings (liver lesions) / Survival: 2 rats; for Gross Findings (liver lesions): 2 weeks; for Survival: sacrifice 2 weeks", "description": "54 male Sprague-Dawley rats 250-300 g in body weight were caged in groups of 2 by treatment group, in standard animal housing facilities and given free access to food and water. Prior to surgery, animals received 0.2 ml intramuscular injection of ketamine and xylazine (30 mg/kg and 4 mg/kg respectively). Rats were anesthetized and fixed on a restraining board. The right upper quadrant of the abdomen was shaved and prepped with betadine solution. A lateral incision approximately 1 cm in length was made 2 cm to the right of the abdominal mid-line and 2 cm below the last rib on the right side and the liver exposed. Under direct visual observation, the solution was injected into the liver slowly over a period of about 2 minutes, using a Hamilton microliter syringe (702) equipped with a 27 gauge needle. The needle was withdrawn and the abdominal incision closed using 4-0 plain gut to seal the peritoneum and skin clips to close the skin. Observations of each animal were made hourly for 4 hours during the day of surgery and daily thereafter for two weeks. At two weeks the animals were sacrificed and their livers examined grossly for lesions at the site of injection."}, "normal feline brain": {"system": "normal feline brain", "test": "Normal feline brain model, direct intra-tissue injection", "settings": "for Gross Findings: lesion size: 2 weeks", "description": "Mongrel cats weighing 2.5-3.0 kg were obtained from Liberty Research, Waverly, N.Y. Animals were anaesthetized using intramuscular acepromazine at 0.1 mg/kg, followed by 0-30 mg total dose of ketamine. A small incision was made over and extending posteriorly from the coronal suture. A 3 mm burr hole was made 0.75 cm posterior to the coronal suture and 0.75 cm lateral to the midline. Using a stereotactic frame, solutions were injected at a depth of 0.75 cm in the area of the sensory cortex. The burr hole was closed with bone wax and the skin closed with a skin clip. Doses of carmustine between 5 and 20 mg were administered in dehydrated alcohol volumes of between 0.05-0.4 ml. Two weeks post injection animals were sacrificed, the brain removed in toto and fixed in 10% buffered formalin and the brain examined grossly for lesions at the site of injection. Solutions injected consisted of an ethanol solvent vehicle alone, or containing varying concentrations of carmustine."}, "[1]": {"settings": "100 μl ethanol + 1.25 mg carmustine (12.5 mg/ml)"}, "[2]": {"settings": "100 μl ethanol + 2.5 mg carmustine (25 mg/ml)"}, "[3]": {"settings": "100 μl ethanol + 5 mg carmustine (50 mg/ml)"}, "[4]": {"settings": "100 μl ethanol + 10 mg carmustine (100 mg/ml)"}, "[5]": {"settings": "100 μl ethanol, 12.5-50 mg/ml carmustine"}, "[6]": {"settings": "0.05 ml ethanol + 5 mg carmustine (100 mg/ml), 1 cat"}, "[7]": {"settings": "0.05 ml ethanol + 20 mg carmustine (400 mg/ml), 1 cat"}, "[8]": {"settings": "0.1 ml ethanol + 10 mg carmustine (100 mg/ml), 1 cat"}, "[9]": {"settings": "0.2 ml ethanol + 5 mg carmustine (25 mg/ml), 1 cat"}, "[10]": {"settings": "0.4 ml ethanol + 5 mg carmustine (12.5 mg/ml), 1 cat"}}, "note": "Entries after “also recorded” stand apart in the source; their conditions may differ."}
{"smiles": "O=NN(CCCl)C(=O)NCCCl", "note": "[Carmustine, carmustine]", "values": [{"measurement": "Clinical Signs", "setting": "normal rat liver; [1]", "result": "ANAS"}, {"measurement": "Gross Findings (liver lesions)", "setting": "normal rat liver; [1]", "result": "no lesion"}, {"measurement": "Survival", "setting": "normal rat liver; [1]", "result": "term"}, {"measurement": "Gross Findings (liver lesions)", "setting": "normal rat liver; [2]", "result": "very small lesions"}, {"measurement": "Survival", "setting": "normal rat liver; [2]", "result": "term"}, {"measurement": "Gross Findings (liver lesions)", "setting": "normal rat liver; [3]", "result": "small lesions"}, {"measurement": "Survival", "setting": "normal rat liver; [3]", "result": "term"}, {"measurement": "Clinical Signs", "setting": "normal rat liver; [4]", "result": "Less active &"}, {"measurement": "Gross Findings (liver lesions)", "setting": "normal rat liver; [4]", "result": "large areas of tissue destruction; also recorded: fice. Large areas"}, {"measurement": "Survival", "setting": "normal rat liver; [4]", "result": "term"}, {"measurement": "Clinical signs at sacrifice", "setting": "normal rat liver; [5]", "result": "appeared normal at sacrifice"}, {"measurement": "gross examination of the liver", "setting": "normal rat liver; [5]", "result": "no or small lesions"}, {"measurement": "toxic effects in normal liver tissue", "setting": "normal rat liver; solutions containing carmustine up to 50 mg/ml", "result": "no toxic effects"}, {"measurement": "Clinical Signs", "setting": "normal feline brain; [6]", "result": "NPND"}, {"measurement": "Gross Findings: lesion size", "setting": "normal feline brain; [6]", "result": "2-3 mm"}, {"measurement": "Survival", "setting": "normal feline brain; 0.05 ml ethanol + 5 mg carmustine (100 mg/ml), 1 cat, sacrifice 2 weeks", "result": "Term"}, {"measurement": "Clinical Signs", "setting": "normal feline brain; 0.05 ml ethanol + 10 mg carmustine (200 mg/ml), 1 cat", "result": "Circles to left, otherwise"}, {"measurement": "Survival", "setting": "normal feline brain; 0.05 ml ethanol + 10 mg carmustine (200 mg/ml), 1 cat, sacrifice 2 weeks", "result": "Term"}, {"measurement": "Clinical Signs", "setting": "normal feline brain; [7]", "result": "Died"}, {"measurement": "Gross Findings: lesion size (diameter)", "setting": "normal feline brain; [7]", "result": "1-1.5 cm"}, {"measurement": "Survival", "setting": "normal feline brain; [7]", "result": 3, "unit": "days"}, {"measurement": "volume of lesion", "setting": "normal feline brain; 0.05 ml ethanol containing 20 mg (400 mg/ml) carmustine", "result": "1.0 to 1.77", "unit": "mL"}, {"measurement": "volume of lesions", "setting": "normal feline brain; 0.05 ml ethanol containing 10 and 20 mg (200 and 400 mg/ml) carmustine", "result": "1.0 to 1.77", "unit": "mL"}, {"measurement": "Clinical Signs", "setting": "normal feline brain; [8]", "result": "NPND"}, {"measurement": "Gross Findings: lesion size", "setting": "normal feline brain; [8]", "result": "4-5 mm"}, {"measurement": "Survival", "setting": "normal feline brain; 0.1 ml ethanol + 10 mg carmustine (100 mg/ml), 1 cat, sacrifice 2 weeks", "result": "Term"}, {"measurement": "Clinical Signs", "setting": "normal feline brain; [9]", "result": "NPND"}, {"measurement": "Gross Findings: lesion size", "setting": "normal feline brain; [9]", "result": 4, "unit": "mm"}, {"measurement": "Survival", "setting": "normal feline brain; 0.2 ml ethanol + 5 mg carmustine (25 mg/ml), 1 cat, sacrifice 2 weeks", "result": "Term"}, {"measurement": "Clinical Signs", "setting": "normal feline brain; [10]", "result": "NPND"}, {"measurement": "Gross Findings: lesion size", "setting": "normal feline brain; [10]", "result": "2-3 mm"}, {"measurement": "Survival", "setting": "normal feline brain; 0.4 ml ethanol + 5 mg carmustine (12.5 mg/ml), 1 cat, sacrifice 2 weeks", "result": "Term"}, {"measurement": "toxic effects on the tissue", "setting": "normal feline brain; 0.4 ml ethanol containing 5 mg (12.5 mg/ml) carmustine", "result": "no toxic effects"}, {"measurement": "effect on post-mitotic (non-dividing) cells of normal brain", "setting": "normal feline brain; 50 μl ethanol, carmustine 200 or 400 mg/ml", "result": "destruction of a relatively large volume of tissue; also recorded: novel activity of carmustine against non-dividing cells"}, {"measurement": "toxic effects in normal brain tissue", "setting": "normal feline brain; solutions containing carmustine up to 100 mg/ml", "result": "no toxic effects"}]}
